In patent US20240272101A1, “Direct Sampling from Phase-Separated Sample for Hydrophobicity Assessment” (DH Technologies Development Pte. Ltd., priority 2021, published 2024):

Experiments:
[1] = known values, quoted for comparison; cited from earlier work
[2] = mass spectrometric hydrophobicity assessment: acoustic droplet ejection from water/pentanol two-phase system versus single-phase aqueous solution; assay type: physicochemical; details: MRM signal; 25 μL pentanol added to 25 μL water, 1 μg/mL analyte; FIGS. 7A and 7B
Experimental: A two-phase system was prepared by adding […] of pentanol to 25 μL of an aqueous solution of dextromethorphan. A SCIEX Triple Quad 6500+ mass spectrometer system having an acoustic droplet dispenser (shown schematically in FIG. 4) equipped with a two-layer acoustic calibration was employed to eject a plurality of droplets from the two-phase system into an OPI of the mass spectrometer for observing an MRM transition of the target analyte. Although in this example, a single MRM transition was monitored, in other cases, multiple MRM transitions of the target analyte can be monitored.
A single-phase aqueous sample was prepared as 1 μg/ml of dextromethorphan in 25 μL of water. A two-phase system was then formed by adding 25 μL of pentanol to 25 μL water in which 0.025 μg was mixed.
The above mass spectrometer was then utilized to obtain a series of measurements of the 272.2→215.1 MRM transition of the target analyte via sampling the single-phase solution and the two-phase system.
By way of comparison, a single-phase aqueous sample of adenosine was prepared by mixing adenosine with 25 μL of water to prepare a single-phase aqueous solution having a concentration of 1 μg/mL of adenosine. A two-phase system was prepared by adding 25 μL of pentanol to 25 μL aqueous single-phase system of adenosine having a concentration of 1 μg/mL adenosine. […]

Structure (SMILES)	log P [1]	relative ratio of the two-phase sampling signal versus the aqueous sampling signal [2]
COc1ccc2c(c1)[C@]13CCCC[C@@H]1[C@H](C2)N(C)CC3 [dextromethorphan]	+3.75	–
Nc1ncnc2c1ncn2[C@@H]1O[C@H](CO)[C@@H](O)[C@H]1O [adenosine]	−1.05	less than that associated with dextromethorphan
